Each compound was assayed against T1, human glycine transporter-2 (GlyT2) (Homo sapiens, UniProt Q9Y345) (assay: GlyT2 inhibitory activity: inhibition of [14C]-glycine uptake in COS-7 cells transfected with human GlyT2). Settings: Cos-7 cells stably transfected with human GlyT2; 20 μM 14C-glycine, 2 h at 37° C.
T1 construct: The entire coding region of the human GlyT2 cDNA was cloned into the mammalian expression vector pCINeo; expressed in transfected cells; host or cells: Cos-7 cells (African green monkey kidney), stably transfected, vector pCINeo, G418 selection
T1 sequence (Q9Y345 1-797): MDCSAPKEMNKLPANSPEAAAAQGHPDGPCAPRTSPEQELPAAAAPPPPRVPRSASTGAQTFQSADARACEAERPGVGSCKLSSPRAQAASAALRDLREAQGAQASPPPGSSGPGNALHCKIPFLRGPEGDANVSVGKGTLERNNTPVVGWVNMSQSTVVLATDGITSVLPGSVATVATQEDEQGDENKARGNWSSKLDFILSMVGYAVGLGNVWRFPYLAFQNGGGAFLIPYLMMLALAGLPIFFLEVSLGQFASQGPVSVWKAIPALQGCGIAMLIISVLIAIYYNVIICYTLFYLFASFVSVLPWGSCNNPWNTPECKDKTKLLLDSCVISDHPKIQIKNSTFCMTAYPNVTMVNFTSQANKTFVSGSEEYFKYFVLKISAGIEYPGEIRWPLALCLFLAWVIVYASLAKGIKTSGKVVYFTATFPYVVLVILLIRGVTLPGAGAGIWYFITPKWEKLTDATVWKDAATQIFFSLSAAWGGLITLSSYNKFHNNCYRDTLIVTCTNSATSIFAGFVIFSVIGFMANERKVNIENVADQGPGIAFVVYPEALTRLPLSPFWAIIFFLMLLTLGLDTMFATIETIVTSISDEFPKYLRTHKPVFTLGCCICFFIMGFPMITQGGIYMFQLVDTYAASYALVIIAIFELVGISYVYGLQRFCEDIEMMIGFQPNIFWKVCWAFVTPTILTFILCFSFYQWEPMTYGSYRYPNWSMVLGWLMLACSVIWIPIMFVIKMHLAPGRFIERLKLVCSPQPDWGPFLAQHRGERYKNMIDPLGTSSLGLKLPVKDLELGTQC
Format: cell-based
Protocol: GlyT2 antagonist activity of representative compounds of the invention was determined in accordance with the assay described in the Examples and by measuring the ability of compounds to inhibit the uptake of [^14C]-glycine in COS-7 cells transfected with the human glycine transporter-2 (GlyT2). The GlyT2 antagonist activities of these representative compounds are set forth hereinafter in Table 1.
Cos-7 cells (African green monkey, kidney) from American Type Culture Collection were grown in DMEM supplemented with 10% fetal bovine serum. The entire coding region of the human GlyT2 cDNA was cloned into the mammalian expression vector pCINeo, and then stably transfected into Cos-7 cells. Transfection was performed essentially as described by T. W. Lovenberg et al. (Mol. Pharmacol. 1999, 55:1101-1107). Cells are grown to 70-80% confluence, removed from the plate with trypsin, and pelleted in a clinical centrifuge. The pellet is resuspended in 400 μL complete medium and transferred to an electroporation cuvette with a 0.4 cm gap between the electrodes (Bio-Rad, 165-2088). One microgram of supercoiled GlyT2 cDNA is added to the cells, and the suspension is mixed. The voltage for the electroporation is set at 0.25 kV, and the capacitance is set at 960 μF. After electroporation, the cuvette contents are diluted to 10 mL with complete medium, and 0.5 mL, 1.0 mL, 2.0 mL and remainder (−6.5 mL) portions are plated onto four 10-cm dishes. The cells are incubated 24 h before adding 600 μg/mL G418. Colonies that survive selection are isolated and tested for GlyT2 expression.
The day before the assay, the GlyT2 expressing cells were plated into 96-well scintillating microplates (Amersham, RPNQ 0160) at a density of approximately 20,000 cells per well. Cells were grown overnight at 37° C. in 5% CO2 and then washed once with 37° C. HEPES buffered saline (HBS: 150 mM NaCl, 20 mM HEPES, 1 mM CaCl2, 10 mM glucose, 5 mM KCl, 1 mM MgCl2; pH 7.4). Eighty microliters of 37° C. HBS was subsequently added to each well. Test solutions of GlyT2 inhibitors were prepared in HBS from DMSO stock solutions, and 5 μL of test solution was added to each test well. Total transport and non-specific background were determined by adding 5 μL HBS or 5 μL 2 M glycine, respectively, to the appropriate control wells. Plates were then left at room temperature for 5 min before the addition of 20 μL of 100 μM ^14C-glycine (NEN, NEC 048H) to each well for a final concentration of 20 μM. Plates were incubated for 2 h at 37° C. with 5% CO2. After 2 h the reaction mixtures were removed by aspiration, and the plates were washed once with ice-cold HBS. Plates were sealed with TopSeal (Packard, 6005185) and counted on a Packard TopCount® scintillation counter.

Compound	IC50 [µM]
O=C(c1cccc(CNCCNc2cccc(Cl)c2)c1)N1CCCCC1 [Example 20, (3-{[2-(3-Chloro-phenylamino)-ethylamino]-methyl}-phenyl)-piperidin-1-yl-methanone]	3.1
O=C(c1cccc(CNCCNc2cccc(Br)c2)c1)N1CCCCC1 [Example 18, (3-{[2-(3-Bromo-phenylamino)-ethylamino]-methyl}-phenyl)-piperidin-1-yl-methanone]	3.1
CCC(CC)Oc1ccccc1NCCNCc1cccc(C(=O)N2CCCCC2)c1 [Example 6, [3-({2-[2-(1-Ethyl-propoxy)-phenylamino]-ethylamino}-methyl)-phenyl]-piperidin-1-yl-methanone]	3
O=C(c1cccc(CNCCNc2ccccc2)c1)N1CCCCC1 [Example 3, {3-[(2-Phenylamino-ethylamino)-methyl]-phenyl}-piperidin-1-yl-methanone]	> 10
O=C(c1cccc(CNCCNc2ccccc2O)c1)N1CCCCC1 [Example 4, (3-{[2-(2-Hydroxy-phenylamino)-ethylamino]-methyl}-phenyl)-piperidin-1-yl-methanone]	20
O=C(c1cccc(CNCCNc2ccccc2Br)c1)N1CCCCC1 [Example 17, (3-{[2-(2-Bromo-phenylamino)-ethylamino]-methyl}-phenyl)-piperidin-1-yl-methanone]	1
O=C(c1cccc(CNCCNc2ccccc2Oc2ccccc2)c1)N1CCCCC1 [Example 8, (3-{[2-(2-Phenoxy-phenylamino)-ethylamino]-methyl}-phenyl)-piperidin-1-yl-methanone]	3
O=C(NCc1ccccc1)Nc1ccccc1NCCNCc1cccc(C(=O)N2CCCCC2)c1 [Example 16, 1-Benzyl-3-(2-{2-[3-(piperidine-1-carbonyl)-benzylamino]-ethylamino}-phenyl)-urea]	3.1
Nc1ccccc1NCCNCc1cccc(C(=O)N2CCCCC2)c1 [Example 12, (3-{[2-(2-Amino-phenylamino)-ethylamino]-methyl}-phenyl)-piperidin-1-yl-methanone]	> 10
O=C(c1cccc(CNCCNc2ccccc2OC2CCCC2)c1)N1CCCCC1 [Example 7, (3-{[2-(2-Cyclopentyloxy-phenylamino)-ethylamino]-methyl}-phenyl)-piperidin-1-yl-methanone]	1.2
CC(C)Nc1ccccc1NCCNCc1cccc(C(=O)N2CCCCC2)c1 [Example 13, (3-{[2-(2-Isopropylamino-phenylamino)-ethylamino]-methyl}-phenyl)-piperidin-1-yl-methanone]	0.55
CC(C)Oc1ccccc1NCCCNCc1cccc(C(=O)N2CCCCC2)c1 [Example 2, (3-{[3-(2-Isopropoxy-phenylamino)-propylamino]-methyl}-phenyl)-piperidin-1-yl-methanone]	4
CS(=O)(=O)Nc1ccccc1NCCNCc1cccc(C(=O)N2CCCCC2)c1 [Example 14, N-(2-{2-[3-(Piperidine-1-carbonyl)-benzylamino]-ethylamino}-phenyl)methanesulfonamide]	3.1
CC(C)Oc1cccc(NCCNCc2cccc(C(=O)N3CCCCC3)c2)c1 [Example 10, (3-{[2-(3-Isopropoxy-phenylamino)-ethylamino]-methyl}-phenyl)-piperidin-1-yl-methanone]	1
O=C(Nc1ccccc1)Nc1ccccc1NCCNCc1cccc(C(=O)N2CCCCC2)c1 [Example 15, 1-Phenyl-3-(2-{2-[3-(piperidine-1-carbonyl)-benzylamino]-ethylamino}-phenyl)-urea]	> 10
O=C(c1cccc(CNCCNc2ccccc2[N+](=O)[O-])c1)N1CCCCC1 [Example 11, (3-{[2-(2-Nitro-phenylamino)-ethylamino]-methyl}-phenyl)-piperidin-1-yl-methanone]	5

Now from value to compound:

IC50 [µM]	Compound
0.4	CC(C)Oc1ccccc1OCCNCc1cccc(C(=O)N2CCCCC2)c1 [Example 24, (3-{[2-(2-Isopropoxy-phenoxy)-ethylamino]-methyl}-phenyl)-piperidin-1-yl-methanone]
> 10	COc1ccccc1-c1ccccc1NCCNCc1cccc(C(=O)N2CCCCC2)c1 [Example 22, (3-{[2-(2′-Methoxy-biphenyl-2-ylamino)-ethylamino]-methyl}-phenyl)-piperidin-1-yl-methanone]
> 10	CC(C)Oc1ccccc1NCCNCc1cccc(C(=O)N2CCC(O)CC2)c1 [Example 41, (4-Hydroxy-piperidin-1-yl)-(3-{[2-(2-isopropoxy-phenylamino)-ethylamino]-methyl}-phenyl)-methanone]
0.4	CC(C)Oc1ccccc1OCCCNCc1cccc(C(=O)N2CCCCC2)c1 [Example 25, (3-{[3-(2-Isopropoxy-phenoxy)-propylamino]-methyl}-phenyl)-piperidin-1-yl-methanone]
0.955	O=C(c1cccc(CNCCNc2ccccc2-c2ccsc2)c1)N1CCCCC1 [Example 23, Piperidin-1-yl-(3-{[2-(2-thiophen-3-yl-phenylamino)-ethylamino]-methyl}-phenyl)-methanone]
1.6	CC(C)Oc1cccc(N(C)CCN(C)Cc2cccc(C(=O)N3CCCCC3)c2)c1 [Example 31, {3-[({2-[(3-Isopropoxy-phenyl)-methyl-amino]-ethyl}-methyl-amino)-methyl]-phenyl}-piperidin-1-yl-methanone]
1.8	CC(C)Oc1ccccc1NCCNCc1cccc(C(=O)N2CCCCCC2)c1 [Example 39, Azepan-1-yl-(3-{[2-(2-isopropoxy-phenylamino)-ethylamino]-methyl}-phenyl)methanone.]
3.5	CC(C)Oc1ccccc1N(C)CCNCc1cccc(C(=O)N2CCCCC2)c1 [Example 28, [3-({2-[(2-Isopropoxy-phenyl)-methyl-amino]-ethylamino}-methyl)-phenyl]-piperidinyl-methanone]
3.1	CC(C)Oc1ccccc1NCCNCc1cc(C(=O)N2CCCCC2)cs1 [Example 34, (5-{[2-(2-Isopropoxy-phenylamino)-ethylamino]-methyl}-thiophen-3-yl)-piperidin-1-yl-Methanone]
> 10	Nc1ccccc1NCCNCc1cc(C(=O)N2CCCCC2)cs1 [Example 35, (5-{[2-(2-Amino-phenylamino)-ethylamino]-methyl}-thiophen-3-yl)-piperidin-1-yl-methanone]
2.5	CC(C)c1ccccc1NCCNCc1cccc(C(=O)N2CCCCC2)c1 [Example 21, (3-{[2-(2-Isopropyl-phenylamino)-ethylamino]-methyl}-phenyl)-piperidin-1-yl-methanone]
> 10	CC(C)Oc1ccccc1N(C)CCN(C)Cc1cccc(C(=O)N2CCCCC2)c1 [Example 29, {3-[({2-[(2-Isopropoxy-phenyl)-methyl-amino]-ethyl}-methyl-amino)-methyl]-phenyl}-piperidin-1-yl-methanone]

Source: US7915420B2, “Aryl piperidine amides” (Janssen Pharmaceutica NV, priority 2003, dated 2011)
